Measured values as given in patent US7932421B2, “N-cyclohexyl benzamides and benzeneacetamides as inhibitors of 11-beta-hydroxysteroid dehydrogenases” (Amgen Inc., priority 2006, dated 2011).

Target: T1, human 11β-HSD1 (Homo sapiens, UniProt P28845)
T1 construct: made in house
Assay: hHSD1 SPA: inhibition of 11β-HSD1 (cortisone to cortisol conversion, scintillation proximity assay)
Assay type: biochemical
Conditions: recombinant human 11β-HSD1, SPA
Experimental: Inhibition of 11β-HSD1 activity was examined by quantitative determination, by an SPA (scintillation proximity assay) system, of the suppressive action on the conversion from cortisone to cortisol using human 11β-HSD1 (hereinafter recombinant 11β-HSD1) expressed using a baculo-virus system as an enzyme source. For the reaction, a reagent was added to a 96-well plate (96-well Opti-plates™-96 (Packard)) to the following final concentration and a volume of 100 μl, and the reaction transpired at room temperature for 90 min. The reaction solution used was 0.1 μg/ml recombinant 11β-HSD1, 500 μM NADPH, 16 nM ^3H cortisone (Amersham Biosciences, […]) dissolved in 0.1% BSA (Sigma)-containing PBS and the test drug was 2 μl of a compound solution (dissolved in DMSO). […] After completion of the reaction, the plate was incubated overnight at room temperature and the radioactivity was measured by Topcount (Packard). […] The inhibition (%) of the test drug was calculated by ((value of control−value of test drug)/(value of control−value of positive control))×100(%). The IC50 value was analyzed using a computer-based curve fitting software.
Recombinant human, mouse and rat 11β-HSD1 were expressed in baculovirus expression system, isolated by affinity purification and used as the enzyme sources for cortisone to cortisol conversion in vitro. ^3H-Cortisone (Amersham Bioscience, […]. 49 Ci/mmol) was used as the substrate, and a monoclonal anti-cortisol antibody and the scintillation proximity assay (SPA) system were used to detect the product of the 11β-HSD1-catalyzed reaction, ^3H-cortisol. Reactions took place at room temperature for 90 min. in 96-well Opti-plates™-96 (Packard) in 100 μL volume with 2 μL test compounds or control in DMSO, 0.1 μg/mL 11β-HSD1 protein, 500 μM NADPH and 16 nM radioactive cortisone, in PBS buffer supplemented with 0.1% BSA (Sigma).
Plates were incubated at room temperature overnight before being read on a Topcount (Packard). The point of 50% inhibition of 11β-HSD1 enzyme activity (IC50) was determined by computer-based curve fitting.

T1 sequence (P28845 whole entry): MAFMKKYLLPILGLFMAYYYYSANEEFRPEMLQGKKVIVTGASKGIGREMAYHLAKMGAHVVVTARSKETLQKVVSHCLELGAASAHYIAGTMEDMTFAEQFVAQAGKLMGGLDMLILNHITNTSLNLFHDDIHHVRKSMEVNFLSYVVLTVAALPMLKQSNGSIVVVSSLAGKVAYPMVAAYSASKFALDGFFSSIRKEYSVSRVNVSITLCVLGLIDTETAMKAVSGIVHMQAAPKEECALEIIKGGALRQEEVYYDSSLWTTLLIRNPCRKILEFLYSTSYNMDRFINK

SMILES | IC50
CC(C(=O)N(C1CC1)[C@H]1CC[C@H](CCO)CC1)c1ccccc1 (stereo partly drawn) [Compound 32, N-Cyclopropyl-N-(trans-4-(2-hydroxyethyl)cyclohexyl)-2-phenylpropionamide] | 52.1 nM
CC(C)c1ccc(C(=O)N(C2CC2)[C@H]2CC[C@H](CCO)CC2)cc1 [Compound 11, N-Cyclopropyl-4-isopropyl-N-(trans-4-(2-hydroxyethyl)cyclohexyl)benzamide] | 0.94 nM
Cc1ccc(C(=O)N(C2CC2)[C@H]2CC[C@H](CC(C)(C)O)CC2)c(F)c1 [Compound 2, N-cyclopropyl-2-fluoro-N-(trans-4-(2-hydroxy-2-methylpropyl)cyclohexyl)-4-methylbenzamide] | 6.89 nM
O=C(c1ccc(Br)cc1F)N(C1CC1)[C@H]1CC[C@H](CCO)CC1 [Compound 8, 4-Bromo-N-cyclopropyl-2-fluoro-N-(trans-4-(2-hydroxyethyl)cyclohexyl)benzamide] | 1.06 nM
O=C(c1cccc(F)c1F)N(C1CC1)[C@H]1CC[C@H](CCO)CC1 [Compound 7, N-Cyclopropyl-2,3-difluoro-N-(trans-4-(2-hydroxyethyl)cyclohexyl)benzamide] | 30.8 nM
O=C(c1ccccc1F)N(C1CC1)[C@H]1CC[C@H](CCO)CC1 [Compound 3, N-Cyclopropyl-2-fluoro-N-(trans-4-(2-hydroxyethyl)cyclohexyl)benzamide] | 3.95 nM
O=C(c1ccccc1)N(C1CC1)[C@H]1CC[C@H](CCO)CC1 [Compound 13, N-Cyclopropyl-N-(trans-4-(2-hydroxyethyl)cyclohexyl)benzamide] | 18.3 nM
O=C(c1ccc(F)cc1)N(C1CC1)[C@H]1CC[C@H](CCO)CC1 [Compound 5, N-Cyclopropyl-4-fluoro-N-(trans-4-(2-hydroxyethyl)cyclohexyl)benzamide] | 21.9 nM
COc1ccc(C(=O)N(C2CC2)[C@H]2CC[C@H](CCO)CC2)cc1 [Compound 9] | 6.35 nM
O=C(c1cccc(F)c1)N(C1CC1)[C@H]1CC[C@H](CCO)CC1 [Compound 4, N-Cyclopropyl-3-fluoro-N-(trans-4-(2-hydroxyethyl)cyclohexyl)benzamide] | 40.5 nM
O=C(c1ccc(Cl)cc1)N(C1CC1)[C@H]1CC[C@H](CCO)CC1 [Compound 6, 4-Chloro-N-cyclopropyl-N-(trans-4-(2-hydroxyethyl)cyclohexyl)benzamide] | 6.9 nM

More lines, now with the values ahead:

IC50 | SMILES
59.4 nM | COc1ccc(C(=O)N(C2CC2)[C@H]2CC[C@](CCO)(c3ccccn3)CC2)cc1 [Compound 24]
> 100 nM | O=C(c1ccc(F)cc1)N(C1CC1)[C@H]1CC[C@](CCO)(c2ccccn2)CC1 [Compound 16]
21.7 nM | COc1ccc(C(=O)N(C2CC2)[C@H]2CC[C@](CCO)(c3ccccn3)CC2)c(F)c1 [Compound 25]
7.2 nM | CC(C)c1ccc(C(=O)N(C2CC2)[C@H]2CC[C@](CCO)(c3ccccn3)CC2)cc1 [Compound 28]
61.4 nM | COc1cccc(C(=O)N(C2CC2)[C@H]2CC[C@](CCO)(c3ccccn3)CC2)c1 [Compound 23]
> 100 nM | CN(C)C(=O)c1ccc(C(=O)N(C2CC2)[C@H]2CC[C@](CCO)(c3ccccn3)CC2)cc1 [Compound 27]
23 nM | O=C(c1ccc(Cl)cc1)N(C1CC1)[C@H]1CC[C@](CCO)(c2ccccn2)CC1 [Compound 19]
1.94 nM | Cc1ccc(C(=O)N(C2CC2)[C@H]2CC[C@H](CCO)CC2)c(F)c1 [Compound 1, N-cyclopropyl-2-fluoro-N-(trans-4-(2-hydroxyethyl)cyclohexyl)-4-methylbenzamide]
54.3 nM | O=C(c1ccc(C(F)(F)F)cc1)N(C1CC1)[C@H]1CC[C@](CCO)(c2ccccn2)CC1 [Compound 31]
12.1 nM | CC(C)(C)c1ccc(C(=O)N(C2CC2)[C@H]2CC[C@](CCO)(c3ccccn3)CC2)cc1 [Compound 29]
11.4 nM | Cc1ccc(C(=O)N(C2CC2)[C@H]2CC[C@](CCO)(c3ccccn3)CC2)cc1 [Compound 26]
20.9 nM | O=C(c1ccccc1F)N(C1CC1)[C@H]1CC[C@](CCO)(c2ccccn2)CC1 [Compound 14]
45.2 nM | O=C(c1cccc(F)c1)N(C1CC1)[C@H]1CC[C@](CCO)(c2ccccn2)CC1 [Compound 15]
